Reference: patent US10947574B2, “Method for producing fermented carotenoid using carotenoid-producing bacteria obtained by using cobalt-containing culturing medium” (ENEOS CORPORATION, priority 2015, dated 2021)

Key:
[1] = system: Paracoccus carotinifaciens strain E-396 (FERM BP-4283); assay: Example 4: medium lots A-E with cobalt chloride, growth (OD610) and carotenoid levels (HPLC); assay type: cell-based; settings: for Astaxanthin / OD610 / Total carotenoid: cobalt chloride added 0.1 mg/L (0.42 μmol/L)
Experimental: (§1) In the following examples, carotenoids were quantified by high performance liquid chromatography (HPLC) as follows.
(§2) Two columns of Inertsil SIL-100A, 5 μm (ϕ4.6 mm×250 mm) (GL Sciences Inc., Japan) were connected together for use as a column. For elution, a mixed solution of n-hexane, tetrahydrofuran and methanol (40:20:1) serving as a mobile phase was passed through the column at a flow rate of 1.0 mL per minute at a constant temperature around room temperature. For measurement, samples were each dissolved in tetrahydrofuran and diluted 100-fold with the mobile phase, and 20 μL aliquots of the resulting dilutions were injected into the column. The column eluates were detected at a wavelength of 470 nm. As a standard for quantification, astaxanthin (SIGMA, Cat. No. A9335) was used. The astaxanthin concentration of the standard solution was determined using the following equation after measuring the absorbance (A) of the standard solution at 477 nm and the area percentage % (B) of the astaxanthin peak in HPLC analysis under the above conditions.
Subsequently, medium ingredients from different manufacturers and lots were combined to prepare 5 types of media, i.e., A, B, C, D and E indicated in Table 7, each having the following composition (glucose 30 g/L, filtered corn steep liquor 30 g/L, ammonium sulfate 1.5 g/L, potassium dihydrogen phosphate 1.5 g/L, disodium hydrogen phosphate dodecahydrate 3.8 g/L, calcium chloride dihydrate 5.0 g/L, magnesium sulfate heptahydrate 0.7 g/L, iron sulfate heptahydrate 1.0 g/L, silicon-based defoaming agent 0.2 g/L). These media were each dispensed in 7.2 ml volumes into cotton-plugged test tubes having an inner diameter of 18 mm to prepare 2 test tubes for each test tube medium for production, i.e., 10 test tubes in total.
The resulting culture solution was then inoculated in 0.05 ml volumes into the 5 types of test tube media for production having different cobalt concentrations (10 test tubes in total), and cultured under shaking at 28° C. for 4 days at 300 spm.
(§3) After being cultured for 4 days, the culture solutions were each measured for microbial cell growth by OD610 and measure for carotenoid levels by HPLC.

[2] = system: Paracoccus zeaxanthinifaciens strain ATCC 21588; assay: Example 7: cobalt concentration series, growth (OD610) and carotenoid levels (HPLC); assay type: cell-based
Experimental: as §1, §2
Subsequently, a medium of the following composition (glucose 30 g/L, filtered corn steep liquor 30 g/L, ammonium sulfate 1.5 g/L, potassium dihydrogen phosphate 1.5 g/L, disodium hydrogen phosphate dodecahydrate 3.8 g/L, calcium chloride dihydrate 5.0 g/L, magnesium sulfate heptahydrate 0.7 g/L, iron sulfate heptahydrate 1.0 g/L, silicon-based defoaming agent 0.2 g/L) was dispensed in 7.2 ml volumes into cotton-plugged test tubes having an inner diameter of 18 mm to prepare 9 test tubes containing a test tube medium for production. The ingredients used to prepare the test tube medium for production were obtained from lots where microbial cells had been confirmed not to grow well.
The resulting culture solution was then inoculated in 0.05 ml volumes into the 9 types of test tube media for production having different cobalt concentrations, and cultured under shaking at 28° C. for 4 days at 300 spm.
as §3

[3] = medium lot A, total cobalt 0.42 μmol/L
[4] = medium lot B, total cobalt 0.62 μmol/L
[5] = medium lot C, total cobalt 0.46 μmol/L
[6] = medium lot D, total cobalt 0.43 μmol/L
[7] = medium lot E, total cobalt 0.49 μmol/L
[8] = final concentration of 0.1 mg/L, regardless of manufacturer and lot of medium ingredient
[9] = cobalt added 0.00042 μmol/L, total 0.0024 μmol/L
[10] = cobalt added 0.0042 μmol/L, total 0.0062 μmol/L
[11] = cobalt added 0.021 μmol/L, total 0.023 μmol/L
[12] = cobalt added 0.042 μmol/L, total 0.044 μmol/L
[13] = cobalt added 0.42 μmol/L, total 0.42 μmol/L
[14] = cobalt added 4.2 μmol/L, total 4.2 μmol/L
[15] = cobalt added 21 μmol/L, total 21 μmol/L
[16] = cobalt added 42 μmol/L, total 42 μmol/L

O.O.O.O.O.O.[Cl-].[Cl-].[Co+2] [Cobalt chloride hexahydrate]
Astaxanthin ([1]; Average of medium lots A-E): 28 mg/L
OD610 ([1]; Average of medium lots A-E): 37
Total carotenoid ([1]; Average of medium lots A-E): 41 mg/L
Astaxanthin [1, 3]: 29 mg/L
OD610 [1, 3]: 37
Total carotenoid [1, 3]: 41 mg/L
Astaxanthin [1, 4]: 26 mg/L
OD610 [1, 4]: 39
Total carotenoid [1, 4]: 40 mg/L
Astaxanthin [1, 5]: 29 mg/L
OD610 [1, 5]: 38
Total carotenoid [1, 5]: 44 mg/L
Astaxanthin [1, 6]: 27 mg/L
OD610 [1, 6]: 36
Total carotenoid [1, 6]: 41 mg/L
Astaxanthin [1, 7]: 28 mg/L
OD610 [1, 7]: 37
Total carotenoid [1, 7]: 40 mg/L
bacterial growth, in words [1, 8]: high
carotenoid productivity, in words [1, 8]: high
Carotenoid: Zeaxanthin [2, 9]: 0.6 mg/L
Carotenoid: β-Carotene [2, 9]: 0.0 mg/L
Carotenoid: β-Cryptoxanthin [2, 9]: 0.0 mg/L
OD610 [2, 9]: 2
Total carotenoid [2, 9]: 0.6 mg/L
Carotenoid: Zeaxanthin [2, 10]: 2.0 mg/L
Carotenoid: β-Carotene [2, 10]: 0.2 mg/L
Carotenoid: β-Cryptoxanthin [2, 10]: 0.1 mg/L
OD610 [2, 10]: 6
Total carotenoid [2, 10]: 2.3 mg/L
Carotenoid: Zeaxanthin [2, 11]: 10.6 mg/L
Carotenoid: β-Carotene [2, 11]: 0.7 mg/L
Carotenoid: β-Cryptoxanthin [2, 11]: 0.3 mg/L
OD610 [2, 11]: 25
Total carotenoid [2, 11]: 11.6 mg/L
Carotenoid: Zeaxanthin [2, 12]: 13.6 mg/L
Carotenoid: β-Carotene [2, 12]: 0.8 mg/L
Carotenoid: β-Cryptoxanthin [2, 12]: 0.3 mg/L
OD610 [2, 12]: 29
Total carotenoid [2, 12]: 14.7 mg/L
Carotenoid: Zeaxanthin [2, 13]: 13.4 mg/L
Carotenoid: β-Carotene [2, 13]: 0.7 mg/L
Carotenoid: β-Cryptoxanthin [2, 13]: 0.3 mg/L
OD610 [2, 13]: 29
Total carotenoid [2, 13]: 14.4 mg/L
Carotenoid: Zeaxanthin [2, 14]: 12.9 mg/L
Carotenoid: β-Carotene [2, 14]: 0.7 mg/L
Carotenoid: β-Cryptoxanthin [2, 14]: 0.3 mg/L
OD610 [2, 14]: 28
Total carotenoid [2, 14]: 13.9 mg/L
Carotenoid: Zeaxanthin [2, 15]: 10.8 mg/L
Carotenoid: β-Carotene [2, 15]: 0.6 mg/L
Carotenoid: β-Cryptoxanthin [2, 15]: 0.4 mg/L
OD610 [2, 15]: 24
Total carotenoid [2, 15]: 11.8 mg/L
Carotenoid: Zeaxanthin [2, 16]: 6.4 mg/L
Carotenoid: β-Carotene [2, 16]: 0.3 mg/L
Carotenoid: β-Cryptoxanthin [2, 16]: 0.3 mg/L
OD610 [2, 16]: 18
Total carotenoid [2, 16]: 7.0 mg/L
